Experiments:
Botrytis cinerea [1] = assay: Example S: in vivo preventive test on Botrytis cinerea (grey mould); conditions: table S; 500 ppm; gherkin plants; grading 4 to 5 days after contamination
Description: Example S: In Vivo Preventive Test on Botrytis cinerea (Grey Mould) […] Gherkin plants (“Vert petit de Paris” variety), sown in starter cups on a 50/50 peat soil pozzolana substrate and grown at 24° C., are treated at the Z11 cotyledon stage by spraying with the active ingredient prepared as described above. Plants, used as controls, are treated with the mixture of acetone/tween/DMSO/water not containing the active material. After 24 hours, the plants are contaminated by spraying the cotyledons with an aqueous suspension of cryopreserved Botrytis cinerea spores (50 000 spores per mL). The spores are suspended in a nutrient solution composed of 10 g/L of PDB, 50 g/L of D-Fructose, 2 g/L of NH4NO3 and 1 g/L of KH2PO4. The contaminated gherkin plants are incubated at 17° C. and at 90% relative humidity. Grading (% of efficacy) is carried out 4 to 5 days after the contamination, in comparison with the control plants.

Alternaria solani = assay: Example C: in vivo preventive test on Alternaria solani (tomato)
Description: Example C: In Vivo Preventive Test on Alternaria solani (Tomato) [table] To produce a suitable preparation of active compound, 1 part by weight of active compound is mixed with the stated amounts of solvent and emulsifier, and the concentrate is diluted with water to the desired concentration. To test for preventive activity, young plants are sprayed with the preparation of active compound at the stated rate of application. One day after this treatment, the plants are inoculated with an aqueous spore suspension of Alternaria solani. The plants remain for one day in an incubation cabinet at approximately 22° C. and a relative atmospheric humidity of 100%. Then the plants are placed in an incubation cabinet at approximately 20° C. and a relative atmospheric humidity of 96%.

[2] = system: Fusarium nivale (var. majus); assay: Example P: in vivo preventive test on Fusarium nivale (wheat); conditions: table P, 500 ppm, evaluated 5 days after inoculation
Description: Example P: In Vivo Preventive Test on Fusarium nivale (Wheat) [table] To produce a suitable preparation of active compound, 1 part by weight of active compound or active compound combination is mixed with the stated amounts of solvent and emulsifier, and the concentrate is diluted with water to the desired concentration. To test for preventive activity, young plants are sprayed with the preparation of active compound or active compound combination at the stated rate of application. After the spray coating has been dried, the plants are slightly injured by using a sandblast and afterwards they are sprayed with a conidia suspension of Fusarium nivale (var. majus). The plants are placed in the greenhouse under a translucent incubation cabinet at a temperature of approximately 10° C. and a relative atmospheric humidity of approximately 100%.

Venturia inaequalis = assay: Example E: in vivo preventive test on Venturia inaequalis (apples); conditions: table E, 100 ppm, evaluated 10 days after inoculation
Description: Example E: In Vivo Preventive Test on Venturia inaequalis (Apples) [table] To produce a suitable preparation of active compound, 1 part by weight of active compound is mixed with the stated amounts of solvent and emulsifier, and the concentrate is diluted with water to the desired concentration. To test for preventive activity, young plants are sprayed with the preparation of active compound at the stated rate of application. After the spray coating has dried on, the plants are inoculated with an aqueous conidia suspension of the causal agent of apple scab (Venturia inaequalis) and then remain for 1 day in an incubation cabinet at approximately 20° C. and a relative atmospheric humidity of 100%. The plants are then placed in a greenhouse at approximately 21° C. and a relative atmospheric humidity of approximately 90%.

Botrytis cinerea [3] = assay: Example H: in vivo preventive test on Botrytis cinerea (beans); conditions: table H, 100 ppm, lesion size 2 days after inoculation
Description: Example H: In Vivo Preventive Test on Botrytis cinerea (Beans)
To produce a suitable preparation of active compound, 1 part by weight of active compound is mixed with the stated amounts of solvent and emulsifier, and the concentrate is diluted with water to the desired concentration.
To test for preventive activity, young plants are sprayed with the preparation of active compound. After the spray coating has dried on, 2 small pieces of agar covered with growth of Botrytis cinerea are placed on each leaf. The inoculated plants are placed in a darkened chamber at 20° C. and a relative atmospheric humidity of 100%.
2 days after the inoculation, the size of the lesions on the leaves is evaluated. 0% means an efficacy which corresponds to that of the untreated control, while an efficacy of 100% means that no disease is observed.

Pyrenophora teres = assay: Example M: in vivo preventive test on Pyrenophora teres (barley); conditions: table M, 500 ppm, evaluated 8 days after inoculation
Description: (§1) Example M: In Vivo Preventive Test on Pyrenophora teres (Barley) [table] To produce a suitable preparation of active compound, 1 part by weight of active compound or active compound combination is mixed with the stated amounts of solvent and emulsifier, and the concentrate is diluted with water to the desired concentration. To test for preventive activity, young plants are sprayed with the preparation of active compound or active compound combination at the stated rate of application. After the spray coating has been dried, the plants are sprayed with a spore suspension of Pyrenophora teres. The plants remain for 48 hours in an incubation cabinet at approximately 20° C. and a relative atmospheric humidity of approximately 100%. The plants are placed in the greenhouse at a temperature of approximately 20° C. and a relative atmospheric humidity of approximately 80%.

Septoria tritici [4] = assay: Example L: in vivo preventive test on Septoria tritici (wheat); conditions: table L; 500 ppm; wheat plants; grading 24 days after contamination
Description: Example L: In Vivo Preventive Test on Septoria tritici (Wheat) […] Wheat plants (“Scipion” variety), sown in starter cups on a 50/50 peat soil pozzolana substrate and grown at 22° C., are treated at the 1 leaf stage (10 cm height) by spraying with the active ingredient prepared as described above. Plants, used as controls, are treated with the mixture of acetone/tween/DMSO/water not containing the active material. After 24 hours, the plants are contaminated by spraying the leaves with an aqueous suspension of cryopreserved Septoria tritici spores (500 000 spores per mL). The contaminated wheat plants are incubated for 72 hours at 18° C. and at 100% relative humidity, and then for 21 days at 90% relative humidity. Grading (% of efficacy) is carried out 24 days after the contamination, in comparison with the control plants.

Septoria tritici [5] = assay: Example K: in vivo preventive test on Septoria tritici (wheat); conditions: table K, 500 ppm, evaluated 21 days after inoculation
Description: as §1, with “Example K: In Vivo” for “Example M: In Vivo”, “Test on Septoria tritici (Wheat) [table] To” for “Test on Pyrenophora teres (Barley) [table] To”, “suspension of […] The plants” for “suspension of Pyrenophora teres. The plants”, “of approximately 100% and afterwards for 60 hours at approximately 15° C. in a translucent incubation cabinet at a relative atmospheric humidity of approximately 100%. The” for “of approximately 100%. The”, “of approximately 15° C. and” for “of approximately 20° C. and”

[6] = table C1, 100 ppm, evaluated 7 days after inoculation

SMILES | Efficacy (Botrytis cinerea [1]) [%] | Efficacy (Alternaria solani; [6]) [%] | Efficacy (Alternaria solani; table C2, dose 100 ppm, comparison with WO-2010/086311 compound) [%] | Efficacy (Alternaria solani; table C2, dose 100 ppm, comparison with WO-2010/086311 compound, listed as 1.23) | Efficacy [2] [%] | Efficacy (Venturia inaequalis) [%] | Efficacy (Botrytis cinerea [3]) [%] | Efficacy (Pyrenophora teres) [%] | Efficacy (Septoria tritici [4]) [%] | Efficacy (Septoria tritici [5]) [%]
CC(C1CCCc2ccccc21)N(C(=O)c1c(C(F)F)nn(C)c1F)C1CC1 (stereo not drawn) [I.23] | 85 | 90 | 90 | at least 90% | 100 | 100 | 99 | 100 | 100 | 100
Cn1nc(C(F)F)c(C(=O)N(CC2CC(C)(C)Oc3ccccc32)C2CC2)c1F (stereo not drawn) [I.33] | 80 | 100 | – | – | 100 | 97 | 96 | 100 | 100 | 100

Reference: US9686985B2, “Fungicide N-cycloalkyl-N-bicyclicmethylene-carboxamide derivatives” (BAYER INTELLECTUAL PROPERTY GMBH, priority 2012, dated 2017)
